{"source": "patent US10294202B2", "about": "“Pyrrolidinones as herbicides” (FMC Corporation, priority 2013, dated 2019)", "key": {"johnsongrass": {"tested_on": "johnsongrass", "assay": "Test E preemergence herbicide test", "format": "in vivo, Sorghum halepense", "parameters": "key: 0 = no effect, 100 = complete control", "source_text": "(§1) Seeds of plant species selected from corn (Zea mays), soybean (Glycine max), velvetleaf (Abutilon theophrasti), lambsquarters (Chenopodium album), wild poinsettia (Euphorbia heterophylla), pigweed, palmer (palmer pigweed, Amaranthus palmeri), waterhemp (common waterhemp, Amaranthus rudis), surinam grass (Brachiaria decumbens), crabgrass, large (large crabgrass, Digitaria sanguinalis), crabgrass, Brazil (Brazilian crabgrass, Digitaria horizontalis), panicum, fall (fall panicum, Panicum dichotomiflorum), foxtail, giant (giant foxtail, Setaria faberii), foxtail, green (green foxtail, Setaria viridis), goosegrass (Eleusine indica), johnsongrass (Sorghum halepense), ragweed (common ragweed, Ambrosia elatior), barnyardgrass (Echinochloa crus-galli), sandbur (southern sandbur, Cenchrus echinatus), arrowleaf […] rhombifolia), ryegrass, Italian (Italian ryegrass, Lolium multiflorum), dayflower, VA (Virginia dayflower, Commelina virginica), field bindweed (Convolvulus arvensis), morningglory (Ipomoea coccinea), nightshade (eastern black nightshade, Solanum ptycanthum), kochia (Kochia scoparia), nutsedge, yellow (yellow nutsedge, Cyperus esculentus), cocklebur (common cocklebur, Xanthium strumarium), smartweed (ladysthumb smartweed, Polygonum Persicaria) and beggarticks (hairy beggarticks, Bidens pilosa), were planted into a silt loam soil and treated preemergence with test chemicals formulated in a non-phytotoxic solvent mixture which included a surfactant. Treated plants and controls were maintained in a greenhouse for 21 days, after which time all species were compared to controls and visually evaluated. Plant response ratings, summarized in Table E, are based on a scale of 0 to 100 where 0 is no effect and 100 is complete control. A dash (-) response means no test result."}, "sandbur": {"tested_on": "sandbur", "assay": "Test E preemergence herbicide test", "format": "in vivo, Cenchrus echinatus", "parameters": "key: 0 = no effect, 100 = complete control", "source_text": "as §1"}, "soybean": {"tested_on": "soybean", "assay": "Test E preemergence herbicide test", "format": "in vivo, Glycine max", "parameters": "key: 0 = no effect, 100 = complete control", "source_text": "as §1"}, "barnyardgrass": {"tested_on": "barnyardgrass", "assay": "Test E preemergence herbicide test", "format": "in vivo, Echinochloa crus-galli", "parameters": "key: 0 = no effect, 100 = complete control", "source_text": "as §1"}, "chickweed": {"tested_on": "chickweed", "assay": "Test D pre-/postemergence herbicide test", "format": "in vivo, Stellaria media", "conditions": "Postemergence, Chickweed, scale 0 to 100", "source_text": "(§2) Seeds of plant species selected from bluegrass (annual bluegrass, Poa annua), blackgrass (Alopecurus myosuroides), canarygrass (littleseed canarygrass, Phalaris minor), chickweed (common chickweed, Stellaria media), galium (catchweed bedstraw, Galium aparine), bromegrass, downy (downy bromegrass, Bromus tectorum), field poppy (Papaver rhoeas), field violet (Viola arvensis), foxtail, green (green foxtail, Setaria viridis), deadnettle (henbit deadnettle, Lamium amplexicaule), ryegrass, Italian (Italian ryegrass, Lolium multiflorum), kochia (Kochia scoparia), lambsquarters (Chenopodium album), oilseed rape (Brassica napus), pigweed (Amaranthus retroflexus), chamomile (scentless chamomile, Matricaria inodora), Russian thistle (Salsola kali), speedwell (bird's-eye speedwell, Veronica persica), barley, spring (spring barley, Hordeum vulgare), wheat, spring (spring wheat, Triticum aestivum), buckwheat, wild (wild buckwheat, Polygonum convolvulus), mustard, wild (wild mustard, Sinapis arvensis), oat, wild (wild oat, Avena fatua), radish, wild (wild radish, Raphanus raphanistrum), […]), barley, winter (winter barley, Hordeum vulgare), and wheat, winter (winter wheat, Triticum aestivum) were planted into a silt loam soil and treated preemergence with test chemicals formulated in a non-phytotoxic solvent mixture which included a surfactant. At the same time, these species were planted in pots containing Redi-Earth® planting medium (Scotts Company, 14111 Scottslawn Road, Marysville, Ohio 43041) comprising spaghnum peat moss, vermiculite, wetting agent and starter nutrients and treated with postemergence applications of the test chemicals formulated in the same manner. Plants ranged in height from 2 to 18 cm (1- to 4-leaf stage). Treated plants and controls were maintained in a controlled growth environment for 7 to 21 days after which time all species were compared to controls and visually evaluated. Plant response ratings, summarized in Table D, are based on a scale of 0 to 100 where 0 is no effect and 100 is complete control. A dash (-) response means no test result."}, "bromegrass, downy": {"tested_on": "bromegrass, downy", "assay": "Test D pre-/postemergence herbicide test", "format": "in vivo, Bromus tectorum", "conditions": "Postemergence, Bromegrass, Downy, scale 0 to 100", "in_short": "(§3)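 Seeds sown in silt loam were sprayed preemergence with test chemicals in a non-phytotoxic solvent mixture with surfactant. Postemergence plants grown in peat/vermiculite medium were treated at 2–18 cm (1- to 4-leaf stage). After 7 to 21 days in a controlled environment, injury was rated visually versus controls, 0 (no effect) to 100 (complete control).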"}, "Russian thistle": {"tested_on": "Russian thistle", "assay": "Test D pre-/postemergence herbicide test", "format": "in vivo, Salsola kali", "conditions": "Postemergence, Russian Thistle, scale 0 to 100", "in_short": "as §3"}, "field violet": {"tested_on": "field violet", "assay": "Test D pre-/postemergence herbicide test", "format": "in vivo, Viola arvensis", "conditions": "Postemergence, Field Violet, scale 0 to 100", "source_text": "as §2"}, "wheat, winter": {"tested_on": "wheat, winter", "assay": "Test D pre-/postemergence herbicide test", "format": "in vivo, Triticum aestivum", "conditions": "Postemergence, Wheat, Winter, scale 0 to 100", "in_short": "as §3"}, "wheat, spring": {"tested_on": "wheat, spring", "assay": "Test D pre-/postemergence herbicide test", "format": "in vivo, Triticum aestivum", "conditions": "Postemergence, Wheat, Spring, scale 0 to 100", "in_short": "as §3"}, "radish, wild": {"tested_on": "radish, wild", "assay": "Test D pre-/postemergence herbicide test", "format": "in vivo, Raphanus raphanistrum", "conditions": "Postemergence, Radish, Wild, scale 0 to 100", "in_short": "as §3"}, "foxtail, green": {"tested_on": "foxtail, green", "assay": "Test D pre-/postemergence herbicide test", "format": "in vivo, Setaria viridis", "conditions": "Postemergence, Foxtail, Green, scale 0 to 100", "source_text": "as §2"}}, "data": [{"smiles": "O=C1NCC(c2ccc(F)cc2)C1C(=O)Nc1ccccc1F", "note": "(racemic) [Compound 16]", "values": [{"measurement": "Plant response rating, Johnsongrass", "setting": "johnsongrass; 16 g ai/ha", "result": 0}, {"measurement": "Plant response rating, Johnsongrass", "setting": "johnsongrass; 31 g ai/ha", "result": 0}, {"measurement": "Plant response rating, Johnsongrass", "setting": "johnsongrass; 62 g ai/ha", "result": 0}, {"measurement": "Plant response rating, Johnsongrass", "setting": "johnsongrass; 125 g ai/ha", "result": 0}, {"measurement": "Plant response rating, Johnsongrass", "setting": "johnsongrass; 250 g ai/ha", "result": 0}, {"measurement": "Plant response rating, Sandbur", "setting": "sandbur; 16 g ai/ha", "result": 0}, {"measurement": "Plant response rating, Sandbur", "setting": "sandbur; 31 g ai/ha", "result": 0}, {"measurement": "Plant response rating, Sandbur", "setting": "sandbur; 62 g ai/ha", "result": 35}, {"measurement": "Plant response rating, Sandbur", "setting": "sandbur; 125 g ai/ha", "result": 70}, {"measurement": "Plant response rating, Sandbur", "setting": "sandbur; 250 g ai/ha", "result": 95}, {"measurement": "Plant response rating, Soybean", "setting": "soybean; 16 g ai/ha", "result": 0}, {"measurement": "Plant response rating, Soybean", "setting": "soybean; 31 g ai/ha", "result": 0}, {"measurement": "Plant response rating, Soybean", "setting": "soybean; 62 g ai/ha", "result": 0}, {"measurement": "Plant response rating, Soybean", "setting": "soybean; 125 g ai/ha", "result": 0}, {"measurement": "Plant response rating, Soybean", "setting": "soybean; 250 g ai/ha", "result": 0}, {"measurement": "Plant response rating, Barnyardgrass", "setting": "barnyardgrass; 16 g ai/ha", "result": 0}, {"measurement": "Plant response rating, Barnyardgrass", "setting": "barnyardgrass; 31 g ai/ha", "result": 0}, {"measurement": "Plant response rating, Barnyardgrass", "setting": "barnyardgrass; 62 g ai/ha", "result": 0}, {"measurement": "Plant response rating, Barnyardgrass", "setting": "barnyardgrass; 125 g ai/ha", "result": 10}, {"measurement": "Plant response rating, Barnyardgrass", "setting": "barnyardgrass; 250 g ai/ha", "result": 70}]}, {"smiles": "O=C1NCC(c2cc(F)c(F)c(F)c2)C1C(=O)Nc1ccccc1F", "note": "(racemic) [Compound 34]", "values": [{"measurement": "Plant response rating", "setting": "chickweed; 16 g ai/ha", "result": 0}, {"measurement": "Plant response rating", "setting": "chickweed; 31 g ai/ha", "result": 0}, {"measurement": "Plant response rating", "setting": "chickweed; 62 g ai/ha", "result": 0}, {"measurement": "Plant response rating", "setting": "chickweed; 125 g ai/ha", "result": 10}, {"measurement": "Plant response rating", "setting": "chickweed; 250 g ai/ha", "result": 20}, {"measurement": "Plant response rating", "setting": "bromegrass, downy; 16 g ai/ha", "result": 0}, {"measurement": "Plant response rating", "setting": "bromegrass, downy; 31 g ai/ha", "result": 0}, {"measurement": "Plant response rating", "setting": "bromegrass, downy; 62 g ai/ha", "result": 0}, {"measurement": "Plant response rating", "setting": "bromegrass, downy; 125 g ai/ha", "result": 0}, {"measurement": "Plant response rating", "setting": "bromegrass, downy; 250 g ai/ha", "result": 0}, {"measurement": "Plant response rating", "setting": "Russian thistle; 16 g ai/ha", "result": 0}, {"measurement": "Plant response rating", "setting": "Russian thistle; 31 g ai/ha", "result": 0}, {"measurement": "Plant response rating", "setting": "Russian thistle; 62 g ai/ha", "result": 0}, {"measurement": "Plant response rating", "setting": "Russian thistle; 125 g ai/ha", "result": 0}, {"measurement": "Plant response rating", "setting": "Russian thistle; 250 g ai/ha", "result": 0}, {"measurement": "Plant response rating", "setting": "field violet; 16 g ai/ha", "result": 0}, {"measurement": "Plant response rating", "setting": "field violet; 31 g ai/ha", "result": 0}, {"measurement": "Plant response rating", "setting": "field violet; 62 g ai/ha", "result": 0}, {"measurement": "Plant response rating", "setting": "field violet; 125 g ai/ha", "result": 0}, {"measurement": "Plant response rating", "setting": "field violet; 250 g ai/ha", "result": 20}, {"measurement": "Plant response rating", "setting": "wheat, winter; 16 g ai/ha", "result": 0}, {"measurement": "Plant response rating", "setting": "wheat, winter; 31 g ai/ha", "result": 0}, {"measurement": "Plant response rating", "setting": "wheat, winter; 62 g ai/ha", "result": 0}, {"measurement": "Plant response rating", "setting": "wheat, winter; 125 g ai/ha", "result": 0}, {"measurement": "Plant response rating", "setting": "wheat, winter; 250 g ai/ha", "result": 0}, {"measurement": "Plant response rating", "setting": "wheat, spring; 16 g ai/ha", "result": 0}, {"measurement": "Plant response rating", "setting": "wheat, spring; 31 g ai/ha", "result": 0}, {"measurement": "Plant response rating", "setting": "wheat, spring; 62 g ai/ha", "result": 0}, {"measurement": "Plant response rating", "setting": "wheat, spring; 125 g ai/ha", "result": 0}, {"measurement": "Plant response rating", "setting": "wheat, spring; 250 g ai/ha", "result": 0}, {"measurement": "Plant response rating", "setting": "radish, wild; 16 g ai/ha", "result": 0}, {"measurement": "Plant response rating", "setting": "radish, wild; 31 g ai/ha", "result": 0}, {"measurement": "Plant response rating", "setting": "radish, wild; 62 g ai/ha", "result": 0}, {"measurement": "Plant response rating", "setting": "radish, wild; 125 g ai/ha", "result": 0}, {"measurement": "Plant response rating", "setting": "radish, wild; 250 g ai/ha", "result": 0}, {"measurement": "Plant response rating", "setting": "foxtail, green; 16 g ai/ha", "result": 0}, {"measurement": "Plant response rating", "setting": "foxtail, green; 31 g ai/ha", "result": 0}, {"measurement": "Plant response rating", "setting": "foxtail, green; 62 g ai/ha", "result": 0}, {"measurement": "Plant response rating", "setting": "foxtail, green; 125 g ai/ha", "result": 0}, {"measurement": "Plant response rating", "setting": "foxtail, green; 250 g ai/ha", "result": 0}]}]}
